Experimental findings from ChEMBL document CHEMBL5543140 (J Med Chem, 2024) are described below.

By Cmax is commonly meant the highest concentration seen after dosing. As a reminder, the Emax is the size of the effect at its maximum, as opposed to the concentration needed. Usually Tmax stands for the time at which the peak concentration occurs. For orientation: inhibition means the drop in the measured response relative to a control, in per cent. For orientation: half-life means the time needed for the level to fall by half in the phase considered. A high value points to slow loss. In general, MRT last refers to a mean duration of stay, worked out from the concentration-time curve. What is called clearance is the volume of plasma or blood freed of the substance per unit of time.

The nature of data set [1]: Cmax in Wistar rat plasma at 5 mg/kg, po measured upto 48 hrs. It counts as ADME, organism-based.
Data set [2] concerns the target T1, 5-hydroxytryptamine receptor 1A (Homo sapiens) (UniProt P08908).
T1 sequence (whole entry): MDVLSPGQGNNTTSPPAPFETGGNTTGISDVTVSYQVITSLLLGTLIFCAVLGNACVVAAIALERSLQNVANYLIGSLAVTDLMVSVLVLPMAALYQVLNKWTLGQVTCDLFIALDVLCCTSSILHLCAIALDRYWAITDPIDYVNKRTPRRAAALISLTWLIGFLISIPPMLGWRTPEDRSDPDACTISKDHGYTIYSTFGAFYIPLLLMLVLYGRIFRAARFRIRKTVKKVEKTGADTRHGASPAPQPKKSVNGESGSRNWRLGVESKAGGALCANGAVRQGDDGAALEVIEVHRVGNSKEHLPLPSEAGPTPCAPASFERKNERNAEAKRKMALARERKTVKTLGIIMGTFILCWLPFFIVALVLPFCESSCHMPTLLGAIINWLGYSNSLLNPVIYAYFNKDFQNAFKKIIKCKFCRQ
The experiment in a line: Agonist activity at human 5-HT1A receptor expressed in HEK293T cells co-transfected with 22F-Glosensor assessed as inhibition of cAMP production measured after 30 mins incubation by Microbeta2Micro-plate counter analysis. To be noted: filed as agonist. The class given is functional, cell-based.

Data set [3] can be described thus: Tmax in Wistar rat brain at 1 mg/kg, iv measured upto 48 hrs. The class given is ADME, organism-based.
Data set [4] can be described thus: Cmax in mouse C57BL/6J brain at 3 mg/kg, po measured after 1 hrs. The class given is ADME, organism-based.
Data set [5] is described as follows: Cmax in Wistar rat brain at 5 mg/kg, po measured upto 48 hrs. The class given is ADME, organism-based.
Data set [6] is described as follows: Drug excretion in Wistar rat urine at 1 mg/kg, iv measured upto 48 hrs. The class given is ADME, organism-based. The note with it: read-out: Drug excretion.
Data set [7] concerns Mus musculus. The experiment in a line: Induction of neuroplasticity in C57BL/6J mouse assessed as increase in BDNF mRNA expression in brain frontal cortex at 3 mg/kg, sc single dose by RT-PCR analysis. The class given is functional, organism-based.
Data set [8] concerns the target Muscarinic acetylcholine receptor M5 (Homo sapiens) (UniProt P08912). The experiment in a line: Displacement of [3H]4-DAMP from human recombinant muscarinic M5 receptor expressed in HEK293 cells at 10 uM incubated for 60 mins by radiometric based scintillation counter assay relative to control. The class given is cell-based. (In general: Loss of bound radioactivity is the signal in a displacement assay; it reports binding, not function.)

The nature of data set [9]: Drug metabolism in rat hepatocytes assessed as formation of sulfoxide with N-acetylation/0-glucuronidations metabolites at 10 uM by HRAMS analysis. It counts as ADME, cell-based, Hepatocyte.
Data set [10] in a line: Cmax in male Sprague-Dawley rat brain at 1 mg/kg, iv measured upto 8 hrs by LC-MS/MS analysis. The class given is ADME, organism-based.
Data set [11] has as its system Hippocampus. The data set is described as follows: Induction of neuroplasticity in C57BL/6J mouse assessed as increase in CREB1 mRNA expression in brain hippocampus at 3 mg/kg, sc single dose by RT-PCR analysis. The class given is functional, organism-based.
A short description of data set [12]: Half life in Wistar rat plasma at 1 mg/kg, iv measured upto 48 hrs. The class given is ADME, organism-based.
Data set [13] concerns Mus musculus. The data set is described as follows: Psychedelic effect in C57BL/6J mouse assessed as induction of 5-HT2A receptor dependent head-twitch responses by visual observation at 3 mg/kg, sc in presence of ketanserin 1 mg/kg, sc measured after 24 hrs. The class given is functional, organism-based.
Data set [14] in a line: MRTlast in Wistar rat plasma at 1 mg/kg, iv measured upto 48 hrs. The class given is ADME, organism-based.
Data set [15] concerns Hippocampus. The data set is described as follows: Induction of neuroplasticity in C57BL/6J mouse assessed as increase in c-Fos mRNA expression in brain hippocampus at 0.3 mg/kg, sc single dose by RT-PCR analysis. The class given is functional, organism-based.
A short description of data set [16]: Brain to plasma ratio in male Sprague-Dawley rat at 1 mg/kg, iv measured upto 8 hrs by LC-MS/MS analysis. The class given is ADME, organism-based. To be noted: brain and plasma, read-out: BPR.
Data set [17] in a line: Clearance in male Sprague-Dawley rat plasma at 1 mg/kg, iv measured upto 8 hrs by LC-MS/MS analysis. The class given is ADME, organism-based.
For data set [18], the target named is 5-hydroxytryptamine receptor 2C (Homo sapiens) (UniProt P28335). The experiment in a line: Agonist activity at human 5-HT2C receptor expressed in HEK293 cells assessed as maximal IP2 production measured after 30 mins incubation by HTRF assay relative to control. The class given is functional, cell-based. The note with it: filed as agonist.

The source made the active and inactive calls.

Chain of 5-hydroxytryptamine receptor 2C (Homo sapiens) (P28335 whole entry): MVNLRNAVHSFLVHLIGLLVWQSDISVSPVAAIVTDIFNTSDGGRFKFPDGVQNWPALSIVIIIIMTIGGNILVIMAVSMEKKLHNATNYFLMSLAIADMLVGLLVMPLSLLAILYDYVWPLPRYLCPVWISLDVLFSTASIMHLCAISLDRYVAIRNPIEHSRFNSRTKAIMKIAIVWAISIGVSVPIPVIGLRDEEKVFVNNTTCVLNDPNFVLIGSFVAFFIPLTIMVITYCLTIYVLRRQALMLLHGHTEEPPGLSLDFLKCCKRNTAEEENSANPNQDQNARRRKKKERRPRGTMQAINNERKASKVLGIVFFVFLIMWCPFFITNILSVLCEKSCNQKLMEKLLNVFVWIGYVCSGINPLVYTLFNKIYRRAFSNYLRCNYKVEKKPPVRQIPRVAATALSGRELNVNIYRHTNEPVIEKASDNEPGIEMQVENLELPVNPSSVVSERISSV
Chain of Muscarinic acetylcholine receptor M5 (Homo sapiens) (P08912 whole entry): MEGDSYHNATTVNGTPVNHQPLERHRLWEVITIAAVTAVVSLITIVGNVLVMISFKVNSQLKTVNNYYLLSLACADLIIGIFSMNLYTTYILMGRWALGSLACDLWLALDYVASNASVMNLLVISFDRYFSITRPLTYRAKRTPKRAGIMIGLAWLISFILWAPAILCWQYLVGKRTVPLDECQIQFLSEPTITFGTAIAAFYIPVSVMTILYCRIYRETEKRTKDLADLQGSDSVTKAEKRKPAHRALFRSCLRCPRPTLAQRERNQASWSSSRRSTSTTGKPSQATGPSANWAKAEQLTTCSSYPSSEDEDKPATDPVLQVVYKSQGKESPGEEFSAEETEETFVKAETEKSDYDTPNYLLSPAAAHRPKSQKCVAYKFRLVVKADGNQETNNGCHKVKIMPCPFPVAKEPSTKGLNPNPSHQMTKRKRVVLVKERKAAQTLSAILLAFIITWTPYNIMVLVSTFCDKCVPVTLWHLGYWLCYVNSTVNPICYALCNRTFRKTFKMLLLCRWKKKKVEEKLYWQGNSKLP

As to `COc1cc([Se]C(F)(F)F)c(OC)cc1CCN.Cl`, the Cmax in data set [1] was 18.6 ng/mL; in data set [4], 2370 ng/g; in data set [5], 402 ng/mL; in data set [10], 1490 ng/mL. Moreover, the Emax in data set [2] was 95%; in data set [18], 91%. Also, the Tmax in [3] was determined as 30 min. In [6], the dose excreted at 48 h was determined as 0.07%. The outcome with Mus musculus [7] was Active. Also, in data set [8], the inhibition amounted to 83%. In data set [9], the Drug metabolism result is recorded as “Metabolite_Detected”. In addition, the result in the data set with Hippocampus [11], in the data set with Mus musculus [13] and in the data set with Hippocampus [15] was inactive. In data set [12], this compound gave a half-life of 46.8 min. Also, the MRT last at 48 h in data set [14] was 37.2 min. In addition, in data set [16], the Kp at 8 h is 15.6. This compound showed a clearance in data set [17] of 79.5 mL/min/kg.
